The structures appear in SMILES notation. Structures can show the parent of a compound that is named as a salt.

The target of test [1] is T1, GnRH receptors (rat pituitary anterior lobe membrane fraction) (Rattus norvegicus, UniProt P30969).
T1 construct: the anterior lobe of the pituitary gland was isolated and washed with ice-cooled homogenate buffer; from tissue; host or cells: anterior lobe of the pituitary gland, male Wistar rats (8 weeks old), membrane fraction
T1 sequence (P30969 1-327): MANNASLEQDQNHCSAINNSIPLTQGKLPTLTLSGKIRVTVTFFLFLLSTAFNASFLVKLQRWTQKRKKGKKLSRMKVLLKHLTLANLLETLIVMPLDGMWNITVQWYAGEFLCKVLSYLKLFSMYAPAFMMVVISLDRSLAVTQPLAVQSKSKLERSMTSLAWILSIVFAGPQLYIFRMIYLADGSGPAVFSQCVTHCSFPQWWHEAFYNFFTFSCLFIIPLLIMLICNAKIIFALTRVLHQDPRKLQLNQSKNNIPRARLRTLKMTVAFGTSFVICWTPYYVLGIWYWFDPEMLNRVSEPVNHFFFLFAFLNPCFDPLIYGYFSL
Kind of test: 125I-leuprolerin GnRH receptor binding inhibition test, rat pituitary anterior lobe membrane fraction. As to conditions: 4° C., 90 minutes, read-out: Binding inhibitory activity (IC50 μM) Rat. On the procedure: Ten (10) μl of 3×10^4 M aqueous leuprolerin solution and 10 μl of 0.01 mg/ml lactoperoxidase were taken in a tube and 10 μl of Na^125 I solution (37 MBq) was added. After stirring, 10 μl of 0.001% H2 O2 was added and the reaction was conducted at room temperature for 20 minutes. Then, 700 μl of 0.05% TFA solution was added to the tube to terminate the reaction and the reaction mixture was purified by reverse-phase HPLC. The HPLC conditions are shown below. ^125 I-leuprolerin was eluted after a retention time of 26-27 minutes. (B) Preparation of a Rat Pituitary Anterior Lobe Membrane Fraction Containing GnRH Receptors […] The pituitary tissue was floated in 2 ml of the homogenate buffer and homogenized using a Polytron homogenizer. The homogenate was centrifuged at 700×G for 15 minutes. The supernatant was taken in an ultracentrifuge tube and centrifuged at 100,000×G for 1 hour to provide a membrane fraction pellet. […] The membrane fraction recovered as a pellet was resuspended in 10 ml of assay buffer, divided into portions, preserved at -80° C. and thawed when needed. […] For the rat and human membrane fractions prepared in (B) and (D), each membrane fraction was diluted with assay buffer to a concentration of 200 μg/ml and distributed in 188 μl portions into tubes. As to the bovine membrane fraction prepared in (C), the membrane fraction was diluted with assay buffer to 750 μg/ml and distributed in 188 μl portions into tubes. […] Where the rat or bovine pituitary anterior lobe membrane fraction was used, the reaction was conducted at 4° C. for 90 minutes. Where the membrane fraction of the CHO with human GnRH receptors expressed was used, the reaction was carried out at 25° C. for 60 minutes. […] After filtration, the radioactivity of ^125 I-leuprolerin remaining on the filter was measured with a γ-counter. The expression (TB-SB)/(TB-NSB)×100 (where SB=radioactivity with the compound added, TB=maximum bound radioactivity, NSB=nonspecifically bound radioactivity) was calculated to find the binding inhibition rate of each test compound.

Test [2] has as its system norepinephrine (NE) uptake. Kind of test: Activity to inhibit norepinephrine (NE) uptake. Type of test: biochemical. As to conditions: rat cerebral cortex; 3H-NE; read-out: NE uptake inhibitory activity (IC50 μM). The method, then: The experiment was performed in accordance with the method of Hyttel et al. [Psychopharmacology 60, 13, 1978]. The whole brain of a rat was homogenized in 40 volumes of ice-cooled 0.32M sucrose solution containing 10 μM pargyline and, then, centrifuged (600×G) for 10 minutes. The supernatant was centrifuged (2500×G) for 55 minutes to provide a pellet. This pellet was suspended in Krebs-Ringer-phosphate buffer (pH 7.4; 122 mM NaCl, 4.82 mM KCl, 0.972 mM CaCl2, 1.21 mM MgSO4, 12.7 mM Na2 HPO4, 2.97 mM NaH2 PO4, 0.162 mM EDTA sodium, 10 mM glucose, 1.14 mM ascorbic acid) saturated with a mixed gas (95% O and 5% CO2). To 900 μl of this suspention was added a solution of the test drug (10 μl) in DMSO and the mixture was incubated at 37° C. for 5 minutes. Then, 100 μl of ^3 H-5-HT (final concentration 10 nM) was added and the mixture was further incubated at 37° C. for 5 minutes. This reaction mixture was filtered under suction using a GF/B filter and the filter was washed with 4 ml of the above-mentioned buffer. The radioactivity on the filter was measured by the liquid scintillation method.
(b) Activity to inhibit norepinephrine (NE) uptake
Using the rat cerebral cortex and, as the substrate, ^3 H-NE, an experiment was performed by otherwise the same procedure as described for 5-HT.

Test [3] relates to serotonine (5-HT) uptake. Kind of test: Activity to inhibit serotonine (5-HT) uptake. The following applies: rat whole brain; 3H-5-HT 10 nM; 37° C.; pH 7.4; read-out: 5-HT uptake inhibitory activity (IC50 μM). Format: biochemical. The gist of the method: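 Rat whole-brain synaptosomal pellet (prepared in sucrose with 10 μM pargyline) in Krebs-Ringer-phosphate buffer pH 7.4, preincubated with test drug 5 min at 37° C. 3H-5-HT (final 10 nM) then added for 5 min at 37° C.; filter-bound radioactivity counted by liquid scintillation; IC50 = dose halving uptake.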

For the compound `c1ccc(CCNCCCC2(c3ccccc3)COCc3ccccc32)cc1` (stereo not drawn) [Example I-24, 4-[3-(β-Phenethylamino)propyl]-4-phenylisochroman hydrochloride], the IC50 (usually the concentration needed to halve the response being measured) worked out at 0.9 µM in test [1], 0.22 µM in test [2] and 0.26 µM in test [3].

In the case of `c1ccc(C2(CCCN3CCCCC34CCc3ccccc3C4)COCc3ccccc32)cc1` (centres unmarked) [Example I-35, 3,4-Dihydro-1'-[3-(4-phenylisochroman-4-yl)propyl]spiro[naphthalene-2(1H),2'-piperidine] hydrochloride], the IC50 in test [1] worked out at 0.7 µM; in test [2], 0.3 µM; in test [3], 0.13 µM.

As for `COc1ccc2c(c1)CCC1(CCCCN1CCCC1(c3ccccc3)COCc3ccccc31)C2` (centres unmarked) [Example I-36, 3,4-Dihydro-6-methoxy-1'-[3-(4-phenylisochroman-4-yl)propyl]spiro[naphthalene-2(1H),2'-piperidine] hydrochloride], the IC50 worked out at 0.6 µM in test [1], 0.41 µM in test [2] and 0.0051 µM in test [3].

For the compound `COC(=O)c1cccc(CNCCCC2(c3ccccc3)COCc3ccccc32)c1` (stereo not drawn) [Example I-45, Methyl α-[3-(4-Phenylisochroman-4-yl)propylamino]-m-toluate hydrochloride], the IC50 in test [1] was found to be 0.5 µM.

`COc1cc2c(cc1OC)CC1(CCCCN1CCCCC1(c3ccccc3)COCc3ccccc31)CC2` (centres unmarked) [Example I-52, 3,4-Dihydro-6,7-dimethoxy-1'-[4-(4-phenylisochroman-4-yl)butyl]spiro[naphthalene-2(1H),2'-piperidine] hydrochloride]: in test [1], the IC50 was 0.03 µM.

The values are drawn from patent publication US5654296A, “Condensed heterocyclic compounds, their production and use” (priority 1994, dated 1997).
